Test results reported in PubChem BioAssay (NCI).
“And” between values parts separate entries of the source, which are not always exact repeats. Equal values may be shown once.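 96-well plates; 48 h exposure; 5 concentrations. Endpoints by linear interpolation between flanking doses. Not reached: highest tested concentration assigned. GI50 = concentration required for 50% inhibition of growth. TGI: concentration producing complete growth inhibition.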

How the values were obtained:
Experiment in all cases: DTP human tumour cell line panel, 48 h
[1] = system: 786-0 renal
[2] = system: A498 renal
[3] = system: A549 NSCLC
[4] = system: ACHN renal
[5] = system: CCRF-CEM leukemia
[6] = system: COLO 205 colon
[7] = system: DLD-1 colon
[8] = system: DMS 114 small cell lung
[9] = system: DMS 273 small cell lung
[10] = system: EKVX NSCLC
[11] = system: HCC-2998 colon
[12] = system: HCT-116 colon
[13] = system: HL-60(TB) leukemia
[14] = system: HOP-92 NSCLC
[15] = system: HT29 colon
[16] = system: IGROV1 ovarian
[17] = system: K-562 leukemia
[18] = system: LOX IMVI melanoma
[19] = system: M19-MEL melanoma
[20] = system: MALME-3M melanoma
[21] = system: NCI-H460 lung
[22] = system: OVCAR-3 ovarian
[23] = system: OVCAR-4 ovarian
[24] = system: OVCAR-5 ovarian
[25] = system: RPMI-8226 leukemia
[26] = system: RXF-631 renal
[27] = system: SF-268 CNS
[28] = system: SF-295 CNS
[29] = system: SK-MEL-28 melanoma
[30] = system: SK-MEL-5 melanoma
[31] = system: SK-OV-3 ovarian
[32] = system: SN12C renal
[33] = system: SNB-19 CNS
[34] = system: SNB-75 CNS
[35] = system: SNB-78 CNS
[36] = system: SR leukemia
[37] = system: SW-620 colon
[38] = system: TK-10 renal
[39] = system: UACC-62 melanoma
[40] = system: UO-31 renal
[41] = system: XF 498 CNS

Structure (SMILES): COc1cc2c(c(OC)c1OC)-c1ccc(SC)c(=O)cc1[C@@H](NC(=O)c1ccc([N+](=O)[O-])cc1)CC2
- TGI [1]: 15.6 µM and 30.7 µM
- TGI [2]: 3.57 µM
- TGI [3]: 25 µM and > 100 µM
- TGI [4]: 25 µM and > 100 µM
- TGI [5]: 25 µM
- TGI [6]: 25 µM
- TGI [7]: 25 µM and > 100 µM
- TGI [8]: 0.89 µM
- TGI [9]: 25 µM and > 100 µM
- TGI [10]: 25 µM
- TGI [11]: 0.0151 µM
- TGI [12]: 7.28 µM and 11.7 µM
- TGI [13]: 0.302 µM
- TGI [14]: 23.2 µM
- GI50 [15]: < 0.0025 µM
- TGI [16]: 25 µM and > 100 µM
- TGI [17]: 25 µM and > 100 µM
- TGI [18]: 25 µM and > 100 µM
- TGI [19]: 25 µM and > 100 µM
- TGI [20]: 25 µM and > 100 µM
- TGI [21]: 0.0108 µM
- TGI [22]: 0.00595 µM
- TGI [23]: 25 µM and > 100 µM
- TGI [24]: 0.171 µM
- TGI [25]: 25 µM and > 100 µM
- TGI [26]: > 100 µM
- TGI [27]: 25 µM and > 100 µM
- TGI [28]: 0.00721 µM
- TGI [29]: > 100 µM
- TGI [30]: 3.79 µM and 1.59 µM
- TGI [31]: 0.0575 µM
- TGI [32]: 25 µM and > 100 µM
- TGI [33]: 23.2 µM
- GI50 [34]: < 0.0025 µM
- TGI [35]: 25 µM
- TGI [36]: 25 µM and > 100 µM
- TGI [37]: 25 µM and > 100 µM
- GI50 [38]: 0.0344 µM
- TGI [38]: 25 µM and > 100 µM
- TGI [39]: 25 µM and > 100 µM
- TGI [40]: 25 µM and 59.4 µM
- TGI [41]: 25 µM
